For one data set, the system named is pooled normal plasma. Put plainly: Thrombelastography/CLSM in pooled normal plasma (INR 1.0) with or without tPA. The data set is classed as biochemical, human. The procedure:
Pooled normal plasma (George King Bio-Medical, Overland Park, Kans.) anticoagulated with sodium citrate was utilized for experimentation. […] Plasma anticoagulated with sodium citrate procured from anonymous donors treated with warfarin was also obtained from the same vendor.
Plasma sample composition of experiments without tPA addition. The final volume for all subsequently described plasma sample mixtures was 359.6 μL. Sample composition consisted of 326 μL of plasma, 10 μL of tissue factor reagent (0.1% final concentration in dH2O; Instrumentation Laboratory, Lexington, Mass.), 3.6 μL of dimethyl sulfoxide (DMSO) or DMSO with CORM-2 (100 μM final concentration; Sigma-Aldrich, St. Louis, Mo.), and 20 μL of 200 mM CaCl2. Tissue factor stock was kept on ice prior to use and was remade every two hours. […] DMSO was added to dry CORM-2 just prior to placement into the plasma mixture. Six replicate experiments were performed with pooled normal plasma with or without CORM-2 added, whereas plasma obtained from subjects treated with warfarin underwent singlicate experiments with or without CORM-2 exposure.
Plasma sample composition of experiments with tPA addition. As in the series of experiments without tPA addition, the final volume of plasma sample mixtures was 359.6 μL. Sample composition consisted of 316 μL of plasma; 10 μL of tissue factor reagent (0.1% final concentration); 3.6 μL of DMSO without or with CORM-2 (100 μM final concentration); 10 μL of tPA diluted with 10 mM potassium phosphate buffer (pH 7.4) for a final activity of 100 IU/mL; and 20 μL of 200 mM CaCl2. As with tissue factor reagent, tPA stock was kept on ice prior to use and was remade every two hours. Six replicate experiments were performed with pooled normal plasma with or without CORM-2 added, whereas plasma obtained from subjects treated with warfarin underwent singlicate experiments with or without CORM-2 exposure.
Clot Lifespan Model Analyses. Plasma sample mixtures were placed in a disposable cup in a computer-controlled THROMBELASTOGRAPH® hemostasis system (Model 5000, Haemoscope Corp., Niles, Ill.), with addition of CaCl2 as the last step to initiate clotting. In the first series of experiments, no tPA was added and data were collected until clot strength (maximum amplitude) was stable. In the second series of experiments in which tPA was added, data were collected until clot lysis time occurred. […] The nomenclature used to describe these phenomena is as follows: Time to maximum rate of thrombus generation (TMRTG): This is the time interval (sec) observed prior to maximum speed of clot growth. Maximum rate of thrombus generation (MRTG): This is the maximum velocity of clot growth observed (dynes/cm^2/sec). Total Thrombus Generation (TTG): This is the total area under the velocity curve during clot growth (dynes/cm^2), representing the amount of clot strength generated during clot growth. Time to maximum rate of lysis (TMRL): This is the time interval (sec) measured from the time of maximum strength to the time when the velocity of clot disintegration is maximal. Maximum Rate of Lysis (MRL): This is the maximum velocity of clot disintegration observed (—dynes/cm^2/sec). Area of Clot Lysis (ACL): This is the total area under the velocity curve during clot disintegration (−dynes/cm^2), representing the amount of clot strength lost during clot disintegration.

The conditions of data set [1]: aqueous solution pH=7.4, 37° C.; cited from earlier work.
Where [2] appears, read: no tPA, 100 μM CORM-2, mean ± SD, n=6.
Where [3] appears, read: tPA 100 U/ml, 100 μM CORM-2, mean ± SD, n=6.
The mark [4] stands for this setting: tPA 100 U/ml, 100 μM vs 0 μM CORM-2.

As to `[C-]#[O+].[C-]#[O+].[C-]#[O+].[C-]#[O+].[C-]#[O+].[C-]#[O+].[Cl][Ru][Cl].[Cl][Ru][Cl]` [CORM-2, tricarbonyldichlororuthenium (II) dimer], in the data set with pooled normal plasma (setting [2]), the “MRTG (maximum rate of thrombus generation)” value was determined as 15.0 ± 2.4 dynes/cm^2/sec, the “TMRTG (time to maximum rate of thrombus generation)” value was determined as 2.26 ± 0.03 min and the “TTG (total thrombus generation)” value is on record as 285 ± 38 dynes/cm^2. Moreover, in the data set with pooled normal plasma (no tPA, 100 μM vs 0 μM CORM-2), the “Percent Change of MRTG” value was found to be 102%, the “Percent Change of TMRTG” value is recorded as −5% and the “Percent Change of TTG” value came out at 70%. In the data set on pooled normal plasma (setting [3]), the “CGT (clot growth time)” value is recorded as 7.00 ± 0.94 min, the “CLS (clot lifespan)” value turned out to be 39.07 ± 2.82 min, the “CLT (clot lysis time)” value amounted to 32.07 ± 3.15 min and the “MRL (maximum rate of lysis)” value was −2.4 ± 0.5 −dynes/cm^2/sec. In the data set with pooled normal plasma (setting [3]), the “MRTG (maximum rate of thrombus generation)” value is listed as 15.2 ± 1.3 dynes/cm^2/sec, the “TMRL (time to maximum rate of lysis)” value was found to be 22.92 ± 1.93 min, the “TMRTG (time to maximum rate of thrombus generation)” value came out at 2.14 ± 0.05 min and the “TTG (total thrombus generation)” value is recorded as 284 ± 27 dynes/cm^2. Further, in the data set on pooled normal plasma (setting [4]), the “Percent Change of CGT” value is recorded as 58%, the “Percent Change of CLS” value is 91%, the “Percent Change of CLT” value was found to be 100% and the “Percent Change of MRL” value was found to be 68%. In the data set with pooled normal plasma (setting [4]), the “Percent Change of MRTG” value was found to be 97%, the “Percent Change of TMRL” value turned out to be 103%, the “Percent Change of TMRTG” value is on record as −2% and the “Percent Change of TTG” value is 106%. For the same compound, the “CO released from every mole of CORM-2” value in data set [1] is on record as 0.75 mol.

Values taken from patent US8697747B2, “Enhancing coagulation or reducing fibrinolysis” (THe UAB Research Foundation, priority 2009, dated 2014).
